pEC50: −log10 of the molar value.
System: FLU A (PR/8/34)
Assay: Flu A Neuraminidase Antiviral Assay
Format: cell-based

| SMILES | pEC50 |
| --- | --- |
| CCN1C(=O)c2c(O)c(=O)ccn2N2C(c3ccccc3)C(CCC(F)F)CCC12 (single isomer, unassigned) [Compound 110B, 2-(3,3-difluoropropyl)-5-ethyl-7-hydroxy-1-phenyl-1,2,3,4,4a,5-hexahydrodipyrido[1,2-b:2′,1′-f][1,2,4]triazine-6,8-dione] | 8.26 |
| CN1C(=O)c2c(O)c(=O)ccn2N2C(c3ccccc3Cl)C(CC(F)(F)F)CCC12 (single isomer, unassigned) [Compound 119A, 1-(2-chlorophenyl)-7-hydroxy-5-methyl-2-(2,2,2-trifluoroethyl)-1,2,3,4,4a,5-hexahydrodipyrido[1,2-b:2′,1′-f][1,2,4]triazine-6,8-dione] | 5.51 |
| CC1(c2ccccc2)CCCC2N(CC(F)(F)F)C(=O)c3c(O)c(=O)ccn3N21 (single isomer, unassigned) [Compound 34A, 7-hydroxy-1-methyl-1-phenyl-5-(2,2,2-trifluoroethyl)-1,2,3,4,4a,5-hexahydrodipyrido[1,2-b:2′,1′-f][1,2,4]triazine-6,8-dione] | 5.51 |
| CN1C(=O)c2c(O)c(=O)ccn2N2C(c3ccccc3)C(CCC3CC3)CCC12 (single isomer, unassigned) [Compound 115D, 2-(2-cyclopropylethyl)-7-hydroxy-5-methyl-1-phenyl-1,2,3,4,4a,5-hexahydrodipyrido[1,2-b:2′,1′-f][1,2,4]triazine-6,8-dione] | 8.16 |
| CCC1(c2ccccc2)CCCC2N(C)C(=O)c3c(O)c(=O)ccn3N21 (single isomer, unassigned) [Compound 22D, 1-ethyl-7-hydroxy-5-methyl-1-phenyl-1,2,3,4,4a,5-hexahydrodipyrido[1,2-b:2′,1′-f][1,2,4]triazine-6,8-dione] | 7.96 |
| CCOC1CCC2N(C)C(=O)c3c(O)c(=O)ccn3N2C1c1ccccc1 (stereo not drawn) [Compound 152B, 2-ethoxy-7-hydroxy-5-methyl-1-phenyl-1,2,3,4,4a,5-hexahydrodipyrido[1,2-b:2′,1′-f][1,2,4]triazine-6,8-dione] | 7.44 |
| Cc1ccccc1C1N2C(CCC13CC1C(C3)C1(F)F)N(C)C(=O)c1c(O)c(=O)ccn12 (single isomer, unassigned) [Compound 69A, 6,6-difluoro-7′-hydroxy-5′-methyl-1′-(o-tolyl)-3′,4′,4a′,5′-tetrahydro-1′H-spiro[bicyclo[3.1.0]hexane-3,2′-dipyrido[1,2-b:2′,1′-f][1,2,4]triazine]-6′,8′-dione] | 8.64 |
| CN1C(=O)c2c(O)c(=O)ccn2N2C1CCCC2(C)c1cccc(Cl)c1 (single isomer, unassigned) [Compound 28B, 1-(3-chlorophenyl)-7-hydroxy-1,5-dimethyl-1,2,3,4,4a,5-hexahydrodipyrido[1,2-b:2′,1′-f][1,2,4]triazine-6,8-dione] | 6.56 |
| CN1C(=O)c2c(O)c(=O)ccn2N2C(c3ccccc3)C(CC3CC3(F)F)CCC12 (single isomer, unassigned) [Compound 114B, 2-((2,2-difluorocyclopropyl)methyl)-7-hydroxy-5-methyl-1-phenyl-1,2,3,4,4a,5-hexahydrodipyrido[1,2-b:2′,1′-f][1,2,4]triazine-6,8-dione] | < 5.09 |
| CN1C(=O)c2c(O)c(=O)ccn2N2C1CCC(=O)C2(C)c1ccccc1 (stereo not drawn) [Compound 138A, 7-hydroxy-1,5-dimethyl-1-phenyl-3,4,4a,5-tetrahydrodipyrido[1,2-b:2′,1′-f][1,2,4]triazine-2,6,8(1H)-trione] | 7.71 |
| CC1CC2N(C)C(=O)c3c(O)c(=O)ccn3N2C(C)(c2ccccc2)C1 (single isomer, unassigned) [Compound 43C, 7-hydroxy-1,3,5-trimethyl-1-phenyl-1,2,3,4,4a,5-hexahydrodipyrido[1,2-b:2′,1′-f][1,2,4]triazine-6,8-dione] | 7.85 |
| CN1C(=O)c2c(O)c(=O)ccn2N2C1CCCC2(C)c1cccc(F)c1 (single isomer, unassigned) [Compound 25A, 1-(3-fluorophenyl)-7-hydroxy-1,5-dimethyl-1,2,3,4,4a,5-hexahydrodipyrido[1,2-b:2′,1′-f][1,2,4]triazine-6,8-dione] | 8.46 |
